As a reminder, the IC50 is the midpoint of a concentration-inhibition curve. Lower therefore signals greater potency in that assay.

Assay [1] has as its system T47D (PI3Kα-H1047R) cell line. The experiment in a line: HTRF phospho-AKT(S473) cell assay in T47D cells. It counts as cell-based, human. As to the method:
(§1) Compounds in the present disclosure were tested in a cell based HTRF phospho-AKT(S473) (CisBio/Revvity) assay in human breast cancer cell lines as a measurement of PIK3CA activity through measuring AKT, a downstream effector. The activity of mutant PI3Kα-H1047R and PI3Kα-Wild Type was measured in the T47D (PI3Kα-H1047R) and SKBR3 (PI3Kα-Wild Type) cell lines, respectively. T47D cells were plated at 20,000 cells per well in 50 μL in RPMI medium supplemented with 10% FBS and 0.2 units/mL insulin, in 384 well plates. SKBR3 cells were plated at 25,000 cells per well in 50 μL in McCoy's 5A medium supplemented with 10% FBS, in 384 well plates. Cells were plated using a Combi Multidrop reagent dispenser (ThermoFisher), and placed in 5% CO2, 37° C. incubator overnight to adhere.
(§2) The next day, cells were treated with either compounds or vehicle (DMSO) in a 12-fold dose response curve of 1:3 dilutions, with 5 μM and 10 μM as the top concentrations for the T47D and SKBR3 cell lines, respectively. Compound treatment was facilitated via the D300e digital dispenser (Tecan), with a maximum DMSO concentration of 0.5%. Following compound addition, cell plates were incubated for 2 hours in 5% CO2, 37° C. incubator. The SKBR3 cells were stimulated and treated with 70 ng/ml PDGF-BB ligand (ThermoFisher) for the remaining 15 minutes of the incubation. Following compound incubation, compound and media was aspirated from the cells and 25 μL of supplemented lysis buffer was added per well, and incubated for 45 minutes at room temperature, shaking at 600 rpm. Next, 16 μL of cell lysate was added to a 384 well low volume ProxyPlate (Perkin Elmer/Revvity) mixed with 4 μL of HTRF antibodies (1:1 Eu Cryptate+d2 Cryptate). HTRF supplemented lysis buffer and antibody reagents were used from the phosphor-AKT(S473) HTRF assay kit (CisBio/Revvity), following manufacturers protocol recommendations. Plates were sealed and incubated at 4° C. overnight.
(§3) The following day, plates were centrifuged for 1 minute at 1000 rpm, and read on a PHERAstar plate reader. IC50 values were calculated using Spotfire software.
On the technique in general: TR-FRET usually uses a lanthanide donor and a delayed reading to cut background.

In assay [2] the test system is SKBR3 (PI3Kα-Wild Type) cell line. Put plainly: HTRF phospho-AKT(S473) cell assay in SKBR3 cells. It counts as cell-based, human. As to the method:
as §1, §2, §3

The mark [3] stands for this setting: Homo sapiens; T47D (PI3Kα-H1047R) cells, HTRF phospho-AKT(S473), 2 hours compound incubation.
Setting [4] is: Homo sapiens, SK-BR-3; SKBR3 (PI3Kα-Wild Type) cells, HTRF phospho-AKT(S473), 2 hours compound incubation, PDGF-BB stimulated.
Setting [5] is: Homo sapiens; HTRF phospho-AKT(S473), T47D (PI3Kα-H1047R) cells, 2 hours compound incubation.
The mark [6] stands for this setting: Homo sapiens, SK-BR-3; HTRF phospho-AKT(S473), SKBR3 (PI3Kα-Wild Type) cells, 2 hours compound incubation, PDGF-BB stimulated.

`Cc1cc([C@@H](C)Nc2ccc(Cl)nc2C(=O)NS(C)(=O)=O)c2nc(-c3ccc(N4CCN(C)CC4)nc3)n(C)c(=O)c2c1` [Compound 251]: the values for the IC50 in assay [1] (setting [3]) and in assay [2] (setting [4]) were less than 250 nM and 1000 to 5000 nM, respectively.
For `Cc1cc([C@@H](C)Nc2ccc(Cl)nc2C(=O)NS(C)(=O)=O)c2nc(-c3ccc(N(C)C)nc3)n(C)c(=O)c2c1` [Compound 349, (R)-6-chloro-3-((1-(2-(6-(dimethylamino)pyridin-3-yl)-3,6-dimethyl-4-oxo-3,4-dihydroquinazolin-8-yl)ethyl)amino)-N-(methylsulfonyl) picolinamide], the IC50 is less than 250 nM in assay [1] (setting [3]) and 1000 to 5000 nM in assay [2] (setting [4]).
Turning to `Cc1cc([C@@H](C)Nc2ccc(Cl)nc2C(=O)NS(C)(=O)=O)c2nc([C@@H]3CCCN(c4ccccn4)C3)n(C)c(=O)c2c1` (relative stereo) [Compound 212, 6-chloro-3-(((R)-1-(3,6-dimethyl-4-oxo-2-((R*)-1-(pyridin-2-yl)piperidin-3-yl)-3,4-dihydroquinazolin-8-yl)ethyl)amino)-N-(methylsulfonyl) picolinamide], the IC50 in assay [1] (setting [3]) is less than 250 nM; in assay [2] (setting [4]) it was 1000 to 5000 nM.
As to `Cc1cc([C@@H](C)Nc2ccc(Cl)nc2C(=O)NS(C)(=O)=O)c2nc(N3C[C@@H]4[C@H](C3)[C@H]4c3nnc(C)s3)n(C)c(=O)c2c1` [Compound 598, 6-chloro-3-(((R)-1-(3,6-dimethyl-2-((1R,5S,6R)-6-(5-methyl-1,3,4-thiadiazol-2-yl)-3-azabicyclo[3.1.0]hexan-3-yl)-4-oxo-3,4-dihydroquinazolin-8-yl)ethyl)amino)-N-(methylsulfonyl) picolinamide], the IC50 is less than 250 nM in assay [1] (setting [5]) and 1000 to 5000 nM in assay [2] (setting [6]).
As to `Cc1cc([C@@H](C)Nc2ccc(Cl)nc2C(=O)NS(C)(=O)=O)c2nc(N3CCC(c4cccnc4C)CC3)n(C)c(=O)c2c1` [Compound 437, (R)-6-chloro-3-((1-(3,6-dimethyl-2-(4-(2-methylpyridin-3-yl)piperidin-1-yl)-4-oxo-3,4-dihydroquinazolin-8-yl)ethyl)amino)-N-(methylsulfonyl) picolinamide], the IC50 is less than 250 nM in assay [1] (setting [3]) and 1000 to 5000 nM in assay [2] (setting [4]).
`Cc1cc([C@@H](C)Nc2ccc(Cl)nc2C(=O)NS(C)(=O)=O)c2nc(N3CCc4c(cnn4CC(F)(F)F)C3)n(C)c(=O)c2c1` [Compound 221, (R)-6-chloro-3-((1-(3,6-dimethyl-4-oxo-2-(1-(2,2,2-trifluoroethyl)-1,4,6,7-tetrahydro-5H-pyrazolo[4,3-c]pyridin-5-yl)-3,4-dihydroquinazolin-8-yl)ethyl)amino)-N-(methylsulfonyl) picolinamide]: the IC50 in assay [1] (setting [3]) is less than 250 nM; in assay [2] (setting [4]), 1000 to 5000 nM.
For the compound `Cc1cc([C@@H](C)Nc2ccc(Cl)nc2C(=O)NS(C)(=O)=O)c2nc(N3CCC(c4cc5n(n4)CCO5)CC3)n(C)c(=O)c2c1` [Compound 556, (R)-6-chloro-3-((1-(2-(4-(2,3-dihydropyrazolo[5,1-b]oxazol-6-yl)piperidin-1-yl)-3,6-dimethyl-4-oxo-3,4-dihydroquinazolin-8-yl)ethyl)amino)-N-(methylsulfonyl) picolinamide], the figures for the IC50 in assay [1] (setting [5]) and in assay [2] (setting [6]) were less than 250 nM and 1000 to 5000 nM, respectively.
Take `Cc1cc([C@@H](C)Nc2ccc(Cl)nc2C(=O)NS(C)(=O)=O)c2nc(N3CCC(c4ccn(-c5cccnc5)n4)CC3)n(C)c(=O)c2c1` [Compound 312, (R)-6-chloro-3-((1-(3,6-dimethyl-4-oxo-2-(4-(1-(pyridin-3-yl)-1H-pyrazol-3-yl)piperidin-1-yl)-3,4-dihydroquinazolin-8-yl)ethyl)amino)-N-(methylsulfonyl) picolinamide]: the IC50 was less than 250 nM in assay [1] (setting [3]) and 1000 to 5000 nM in assay [2] (setting [4]).
As to `Cc1cc([C@@H](C)Nc2ccc(Cl)nc2C(=O)NS(C)(=O)=O)c2nc(N3C[C@@H]4[C@H](C3)[C@H]4c3cncc(C)n3)n(C)c(=O)c2c1` [Compound 418, 6-chloro-3-(((R)-1-(3,6-dimethyl-2-((1R,5S,6R)-6-(6-methylpyrazin-2-yl)-3-azabicyclo[3.1.0]hexan-3-yl)-4-oxo-3,4-dihydroquinazolin-8-yl)ethyl)amino)-N-(methylsulfonyl) picolinamide], the IC50 in assay [1] (setting [3]) was less than 250 nM; in assay [2] (setting [4]), 1000 to 5000 nM.
Turning to `Cc1cc([C@@H](C)Nc2ccc(Cl)nc2C(=O)NS(C)(=O)=O)c2nc(N3Cc4cn(-c5ccnn5C)nc4C3)n(C)c(=O)c2c1` [Compound 277, (R)-6-chloro-3-((1-(3,6-dimethyl-2-(2-(1-methyl-1H-pyrazol-5-yl)-2,6-dihydropyrrolo[3,4-c]pyrazol-5(4H)-yl)-4-oxo-3,4-dihydroquinazolin-8-yl)ethyl)amino)-N-(methylsulfonyl) picolinamide], the IC50 in assay [1] (setting [3]) is less than 250 nM; in assay [2] (setting [4]), 1000 to 5000 nM.
As for `Cc1cc([C@@H](C)Nc2ccc(Cl)nc2C(=O)NS(C)(=O)=O)c2nc(-c3ccc4nn(C)cc4c3C)n(C)c(=O)c2c1` [Compound 798, (R)-6-chloro-3-((1-(2-(2,4-dimethyl-2H-indazol-5-yl)-3,6-dimethyl-4-oxo-3,4-dihydroquinazolin-8-yl)ethyl)amino)-N-(methylsulfonyl) picolinamide], the IC50 is less than 250 nM in assay [1] (setting [5]) and 1000 to 5000 nM in assay [2] (setting [6]).
On the same counts, the results for `Cc1cc([C@@H](C)Nc2ccc(Cl)nc2C(=O)NS(C)(=O)=O)c2nc(N3CCC[C@@H](c4cnc(C)nc4)C3)n(C)c(=O)c2c1` (relative stereo) [Compound 645, 6-chloro-3-(((R)-1-(3,6-dimethyl-2-((R*)-3-(2-methylpyrimidin-5-yl)piperidin-1-yl)-4-oxo-3,4-dihydroquinazolin-8-yl)ethyl)amino)-N-(methylsulfonyl) picolinamide] are 500 to 1000 nM and not below 5000 nM.
On the same counts, the results for `Cc1cc([C@@H](C)Nc2ccc(Cl)nc2C(=O)NS(C)(=O)=O)c2nc(-c3ccc(-c4cn(C)cn4)cc3)n(C)c(=O)c2c1` [Compound 802, (R)-6-chloro-3-((1-(3,6-dimethyl-2-(4-(1-methyl-1H-imidazol-4-yl)phenyl)-4-oxo-3,4-dihydroquinazolin-8-yl)ethyl)amino)-N-(methylsulfonyl) picolinamide] are less than 250 nM and 1000 to 5000 nM.
On to `Cc1cc([C@@H](C)Nc2ccc(Cl)nc2C(=O)NS(C)(=O)=O)c2nc(N3CC[C@H](c4cnc(C)nc4)C3)n(C)c(=O)c2c1` (relative stereo) [Compound 658, 6-chloro-3-(((R)-1-(3,6-dimethyl-2-((R*)-3-(2-methylpyrimidin-5-yl)pyrrolidin-1-yl)-4-oxo-3,4-dihydroquinazolin-8-yl)ethyl)amino)-N-(methylsulfonyl) picolinamide], for which the IC50 in assay [1] (setting [5]) is 500 to 1000 nM; in assay [2] (setting [6]), not below 5000 nM.
For `Cc1cc([C@@H](C)Nc2ccc(Cl)nc2C(=O)NS(C)(=O)=O)c2nc(N3C[C@@H]4[C@H](C3)[C@H]4c3nn(C)nc3C)n(C)c(=O)c2c1` [Compound 497, 6-chloro-3-(((R)-1-(2-((1R,5S,6R)-6-(2,5-dimethyl-2H-1,2,3-triazol-4-yl)-3-azabicyclo[3.1.0]hexan-3-yl)-3,6-dimethyl-4-oxo-3,4-dihydroquinazolin-8-yl)ethyl)amino)-N-(methylsulfonyl) picolinamide], the IC50 is less than 250 nM in assay [1] (setting [5]) and 1000 to 5000 nM in assay [2] (setting [6]).

(Values after US12281122B1, “PI3K inhibitors” (Cogent Biosciences, Inc., priority 2023, dated 2025).)
